From ChEMBL document CHEMBL1201862, “PubChem BioAssay data set” (2004)
The source made the active and inactive calls.

Experiments:
[1] = target: T1, High affinity choline transporter 1 (Homo sapiens, UniProt Q9GZV3); test: CHT inhibitors, dose response, cell-based, 5-point CRC, membrane potential dye (AID 504840); assay type: functional
T1 sequence (Q9GZV3 whole entry): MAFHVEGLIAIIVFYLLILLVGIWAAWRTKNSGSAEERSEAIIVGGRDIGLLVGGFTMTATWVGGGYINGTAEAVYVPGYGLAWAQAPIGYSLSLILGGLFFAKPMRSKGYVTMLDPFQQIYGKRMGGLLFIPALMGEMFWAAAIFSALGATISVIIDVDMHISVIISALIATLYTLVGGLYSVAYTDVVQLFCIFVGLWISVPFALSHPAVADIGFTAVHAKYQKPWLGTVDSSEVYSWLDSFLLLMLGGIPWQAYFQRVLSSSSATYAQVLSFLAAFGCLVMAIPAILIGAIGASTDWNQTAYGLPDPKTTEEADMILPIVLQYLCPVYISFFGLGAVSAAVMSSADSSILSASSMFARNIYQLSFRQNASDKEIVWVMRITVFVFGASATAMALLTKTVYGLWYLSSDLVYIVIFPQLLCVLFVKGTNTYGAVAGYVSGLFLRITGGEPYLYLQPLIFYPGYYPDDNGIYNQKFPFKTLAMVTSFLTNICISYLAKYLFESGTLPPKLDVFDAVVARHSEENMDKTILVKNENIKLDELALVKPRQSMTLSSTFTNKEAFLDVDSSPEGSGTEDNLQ

[2] = THP-1 cell cytotoxicity, dose response, cytotoxicity control for Vif-APOBEC3G degradation inhibitor project, THP-1 cells (AID 1117359); assay type: functional; conditions: Human immunodeficiency virus 1, THP-1
[3] = growth suppression of PTEN-null colon cells, dose response, cell-based, HCT116 PTEN knockout (AID 1047); assay type: functional;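 note: HCT116 colon tumor cells with PTEN knocked out; cells exposed to compound for 60 hours before readout; potency for loss of cell viability measured by luminescence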
[4] = growth suppression of beta-catenin-knockout colon cells, dose response, cell-based, HCT116, human colon tumor (AID 1045); assay type: functional;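 note: HCT116 colon tumor cells with beta catenin knocked out; cells exposed to compound for 60 hours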
[5] = target: Glyceraldehyde-3-phosphate dehydrogenase (Homo sapiens, UniProt P04406)
Chain of Glyceraldehyde-3-phosphate dehydrogenase (P04406 whole entry): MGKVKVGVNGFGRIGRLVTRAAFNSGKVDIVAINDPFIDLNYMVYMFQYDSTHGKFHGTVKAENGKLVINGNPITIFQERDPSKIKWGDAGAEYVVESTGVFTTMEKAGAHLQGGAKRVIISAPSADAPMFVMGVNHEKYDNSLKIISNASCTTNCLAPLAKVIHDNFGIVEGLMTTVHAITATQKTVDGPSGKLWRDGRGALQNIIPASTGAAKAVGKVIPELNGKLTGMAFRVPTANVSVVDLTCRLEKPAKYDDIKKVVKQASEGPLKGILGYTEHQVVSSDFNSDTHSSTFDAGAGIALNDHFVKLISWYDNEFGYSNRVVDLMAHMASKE

[6] = target: T2, Alkaline phosphatase, tissue-nonspecific isozyme (Homo sapiens, UniProt P05186); test: human TNAP enzyme inhibitors, SAR follow-up, biochemical, luminescent, dose response (AID 1056)
T2 sequence (P05186 whole entry): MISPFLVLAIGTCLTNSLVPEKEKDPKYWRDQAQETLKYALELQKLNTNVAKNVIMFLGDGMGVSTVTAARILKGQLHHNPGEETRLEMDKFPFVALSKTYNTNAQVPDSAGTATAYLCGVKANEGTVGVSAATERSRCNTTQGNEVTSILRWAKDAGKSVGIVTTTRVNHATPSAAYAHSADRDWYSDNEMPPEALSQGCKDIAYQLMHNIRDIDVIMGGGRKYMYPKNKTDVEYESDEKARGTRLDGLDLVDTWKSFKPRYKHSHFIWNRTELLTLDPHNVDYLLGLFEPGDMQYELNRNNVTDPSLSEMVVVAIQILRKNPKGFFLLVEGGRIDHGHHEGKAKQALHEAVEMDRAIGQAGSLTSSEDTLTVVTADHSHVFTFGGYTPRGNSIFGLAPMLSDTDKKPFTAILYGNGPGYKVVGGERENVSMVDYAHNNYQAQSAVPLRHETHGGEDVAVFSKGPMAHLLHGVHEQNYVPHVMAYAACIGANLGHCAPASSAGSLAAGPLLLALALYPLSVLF

[7] = target: T3, Coagulation factor XII (Homo sapiens, UniProt P00748); assay type: functional;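 note: activated factor XIIa alpha cleaving a fluorogenic AMC peptide substrate; inhibitor potency from loss of enzyme activity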
T3 sequence (P00748 whole entry): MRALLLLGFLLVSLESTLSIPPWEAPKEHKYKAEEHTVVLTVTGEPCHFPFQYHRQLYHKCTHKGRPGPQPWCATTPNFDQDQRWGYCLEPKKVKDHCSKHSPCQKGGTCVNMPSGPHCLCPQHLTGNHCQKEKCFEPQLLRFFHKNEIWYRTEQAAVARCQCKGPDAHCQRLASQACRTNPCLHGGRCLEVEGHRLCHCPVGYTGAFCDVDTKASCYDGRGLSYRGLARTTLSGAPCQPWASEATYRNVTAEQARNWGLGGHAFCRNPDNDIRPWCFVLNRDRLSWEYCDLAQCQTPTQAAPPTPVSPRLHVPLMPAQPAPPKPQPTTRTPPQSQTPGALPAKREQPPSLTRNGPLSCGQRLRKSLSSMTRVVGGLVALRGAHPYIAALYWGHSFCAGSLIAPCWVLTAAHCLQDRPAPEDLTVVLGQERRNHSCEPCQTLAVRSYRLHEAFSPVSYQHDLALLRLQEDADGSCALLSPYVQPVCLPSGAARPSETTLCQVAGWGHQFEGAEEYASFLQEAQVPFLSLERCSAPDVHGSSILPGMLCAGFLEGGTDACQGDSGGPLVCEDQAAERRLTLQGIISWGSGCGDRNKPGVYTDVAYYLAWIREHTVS

[8] = system: HEK293; test: NOD1 signaling inhibitors, primary screen, cell-based, luminescence, uHTS (AID 1578); assay type: functional; conditions: Homo sapiens
[9] = system: Streptococcus sp. 'group A'; test: growth inhibition of control SK(-) GAS strain, dose response, counter-screen for streptokinase expression inhibitor project, luminescence, kanamycin, BacTiterGlo, confirmation (AID 1900); assay type: functional, organism-based
[10] = system: HEK293; test: cells; assay type: functional, cell-based; conditions: Homo sapiens
[11] = system: HEK293; test: cells; assay type: functional, cell-based; conditions: Homo sapiens; remark: listed apart in the source
[12] = system: HEK293; test: NOD2 signaling inhibitors in MDP-stimulated cells, cell-based, uHTS, luminescence (AID 2001); assay type: functional; conditions: Homo sapiens
[13] = system: Streptococcus; test: Group A Streptococcus viability loss, dose response, counter-screen for streptokinase expression inhibitor project, luminescence, BacTiterGlo (AID 1915); assay type: functional, organism-based;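 note: potency for reduction of bacterial viability or growth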
[14] = target: T4, Short transient receptor potential channel 4 (Mus musculus, UniProt Q9QUQ5); test: mouse TRPC4 channel activators, dose response, cell-based, HEK293 TRPC4/mu-opioid, Fluo-4 calcium (AID 434937); assay type: functional
T4 sequence (Q9QUQ5 whole entry): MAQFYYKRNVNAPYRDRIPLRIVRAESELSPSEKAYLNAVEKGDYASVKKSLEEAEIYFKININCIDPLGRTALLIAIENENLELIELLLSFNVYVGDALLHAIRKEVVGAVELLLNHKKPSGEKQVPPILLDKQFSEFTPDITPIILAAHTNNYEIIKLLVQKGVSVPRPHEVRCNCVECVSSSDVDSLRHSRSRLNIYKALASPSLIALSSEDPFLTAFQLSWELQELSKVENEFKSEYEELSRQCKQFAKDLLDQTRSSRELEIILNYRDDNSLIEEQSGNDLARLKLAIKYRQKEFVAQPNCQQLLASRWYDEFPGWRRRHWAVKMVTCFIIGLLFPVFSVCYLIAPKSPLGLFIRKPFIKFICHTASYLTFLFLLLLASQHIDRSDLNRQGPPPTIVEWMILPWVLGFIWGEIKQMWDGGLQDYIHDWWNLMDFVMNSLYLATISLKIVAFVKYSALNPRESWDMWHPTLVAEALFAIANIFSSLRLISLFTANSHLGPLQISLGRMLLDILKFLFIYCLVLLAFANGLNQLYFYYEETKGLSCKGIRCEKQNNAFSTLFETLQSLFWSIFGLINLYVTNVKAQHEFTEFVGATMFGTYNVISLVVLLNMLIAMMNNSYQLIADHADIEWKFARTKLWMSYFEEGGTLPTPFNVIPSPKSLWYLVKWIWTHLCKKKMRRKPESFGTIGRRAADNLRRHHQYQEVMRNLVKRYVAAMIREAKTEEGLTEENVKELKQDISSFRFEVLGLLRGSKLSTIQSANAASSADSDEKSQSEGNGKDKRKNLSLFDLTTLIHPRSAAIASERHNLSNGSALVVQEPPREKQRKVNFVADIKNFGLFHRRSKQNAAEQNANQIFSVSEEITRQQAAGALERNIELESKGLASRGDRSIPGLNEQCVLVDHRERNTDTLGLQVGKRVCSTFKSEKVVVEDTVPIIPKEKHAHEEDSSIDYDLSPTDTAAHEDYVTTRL

[15] = P. falciparum 3D7-ScDHODH growth inhibitors, dose response, SYBR Green, dry powder samples (AID 1159570); assay type: functional, cell-based;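 note: parasite growth measured after 72 hours of compound exposure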
[16] = P. falciparum Dd2 growth inhibitors, dose response, SYBR Green, cherry-picked samples (AID 1159567); assay type: functional, cell-based
[17] = P. falciparum Dd2 growth inhibitors, dose response, SYBR Green, dry powder samples (AID 1159566); assay type: functional, cell-based;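 note: potency for growth inhibition with lower SYBR green DNA signal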
[18] = P. falciparum ATP4 D1247Y mutant growth inhibitors, dose response, NITD609-resistant line, SYBR Green, dry powder (AID 1159571); assay type: functional, cell-based;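 note: parasites synchronized at ring stage by sorbitol before testing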

With `COc1ccc(-c2csc3ncnc(N4CCN(CCO)CC4)c23)cc1` the IC50 [1] was 13.8 µM (active).
With `CCN(CC)CCC(c1ccc2c(c1)OCO2)c1c(OC)cc(OC)c2c(-c3ccccc3)cc(=O)oc12` (stereo not drawn) the IC50 [1] was 18.2 µM (active).
For `COc1ccc(OCCOC(=O)c2cc(S(=O)(=O)N3CCOCC3)c(Cl)cc2Cl)cc1`, the CC50 [2] was 23.9 µM (active).
With `CC1CCCCC1N=C(S)Nc1ccc(SC(F)F)cc1` (stereo not drawn) the EC50 [3] was 17.5 µM (active), the EC50 [4] was 19 µM (active) and the IC50 [1] was 7.63 µM (active).
In the case of `COc1ccc(Br)cc1S(=O)(=O)Nc1ccon1`, the IC50 [5] is reported as > 100 µM (not active) and the IC50 [6] is reported as > 100 µM (inactive).
For `Cc1ccc(S(=O)(=O)N2CCN(Cc3cc(C(C)C)ccc3O)CC2)cc1`, the IC50 [7] was > 50 µM (inactive).
With `O=C(NCCN1CCc2ccccc2C1)C1CC(=O)N(C2CCCC2)C1` (stereo not drawn) the IC50 [7] was > 50 µM (inactive).
For `O=c1c2cc(Br)ccc2nc(-c2ccc(Cl)cc2)n1O`, the EC50 [8] was 6.02 µM (active), the EC50 [9] was 1.24 µM (active) and the IC50 [10] was > 20 µM (inactive). The IC50 [11] was > 20 µM (inactive), the IC50 [12] was 14.2 µM (inactive) and the EC50 [13] was 2.6 µM (active). For the same compound, the EC50 [14] was 6.68 µM (active) and the IC50 [1] was 5.01 µM (active).
With `COC(=O)c1ccc(OC)c(S(=O)(=O)Nc2cnc3ccccc3c2)c1` the IC50 [5] was > 10 µM (inconclusive) and the IC50 [6] was > 10 µM (inactive).
For `Cc1nnc(NC(=O)c2c(F)c(F)c(F)c(F)c2F)s1`, the IC50 [7] was > 50 µM (inactive).
In the case of `CN(C)/C=C1\C=C(c2ccccc2)OC1=O`, the IC50 [7] is reported as > 50 µM (inactive).
For `CC(NC(=O)c1cccc(S(=O)(=O)N2CCN(C)CC2)c1)C1CC2CCC1C2` (stereo not drawn), the IC50 [1] was 13.2 µM (active).
With `NNC(=O)CN1C(=O)CN=C(c2ccccc2)c2cc(Br)ccc21` the IC50 [7] was > 50 µM (inactive).
With `CCOC(=O)Nc1cc(C)c(Cl)cc1OC` the CC50 [2] was > 40 µM (active).
With `C[C@@H]1CN([C@@H](C)CO)C(=O)c2cccc(NC(=O)Nc3ccccc3)c2O[C@@H]1CN(C)C(=O)Nc1ccccc1` the AC50 [15] was 1.06 µM (active), the AC50 [16] was 0.37 µM (active) and the AC50 [17] was 0.204 µM (active). The AC50 [18] was 0.216 µM (active).
For `COc1ccc(NC(=O)N(C)C[C@H]2Oc3c(NC(=O)Nc4ccccc4)cccc3C(=O)N([C@@H](C)CO)C[C@H]2C)cc1`, the AC50 [15] was 0.261 µM (active), the AC50 [16] was < 0.3 µM (active) and the AC50 [17] was 0.167 µM (active). The AC50 [18] was 0.2 µM (active).
